The target in assay [1] is human norepinephrine transporter (NET) (Homo sapiens (Human), UniProt P23975). Description: Scintillation Proximity Assay (SPA) competition binding, human NET. The note with it: recombinant hNET-CHO membranes, [3H]nisoxetine. An excerpt: (§1) Measure of Affinity to the Human Transporters DAT, NET and SERT
(§2) Affinity is expressed in terms of inhibition constant (Ki) of the compounds of the invention for DAT, NET and SERT, and it is typically calculated from the IC50 values obtained in competition experiments using Cheng and Prusoff equation (Cheng and Prusoff, Biochem. Pharmacol. 22:3099, 1973). In the context of the present invention pKi values (corresponding to the antilogarithm of Ki) are used instead of Ki; pKi are only estimated to be accurate to about 0.3 log unit.
(§3) Scintillation Proximity Assay (SPA) for Human DAT, NET and SERT Binding
(§4) Chinese Hamster Ovary (CHO) cells stably expressing either human DAT (hDAT-CHO) or human NET (hNET-CHO) or human SERT (hSERT-CHO) are used for the membrane preparations for radioligand binding assays using Scintillation proximity Assay (SPA) technique. Each cell line is cultured independently in F-12K Nutrient Mixture containing 10% of Fetal Bovine Serum (FBS) supplemented with 450 μg/ml G-418. When cells are at 70-80% of confluence 3 mM Na Butyrate was added to the cell culture medium. After 24 h of incubation, the culture medium was removed and the cells detached with Versene (DAT) or by scraping (NET and SERT). Cell suspension is centrifuged at 41,000 g for 10 minutes at 4° C. The resultant pellets are re-suspended in 15 volumes of Ice-cold buffer (20 mM HEPES, 145 mM NaCl, 5 mM KCl, pH7.3), homogenized using an Ultra Turrax homogeniser and centrifuged as before. The resultant membrane pellets are re-suspended in up to 15 volume of ice-cold buffer, incubated for 20 minutes at 37-C and centrifuged as before at 41,000 g. The final membrane pellets are re-suspended into 5-10 volumes of ice-cold buffer, dispensed into 0.5 ml aliquots and stored at −80° C. until use. Protein concentration for each preparation is determined using Bio-Rad Protein Assay kit.
(§5) The affinity of the compounds of the invention to the human DAT or NET or SERT transporters is assessed by using the [^3H]WIN-35,428 or [^3H]nisoxetine or [^3H]citalopram binding assays in recombinant human DAT, NET and SERT membranes with the SPA technology. The final assay volume is 50 μL in 384 well plates.
(§6) Briefly, 0.5 μL of test compound in neat DMSO or 0.5 μL of DMSO for total binding (TB) or 0.5 μL of indatraline 1 mM (10 μM final concentration) for non specific binding (NSB) are added to the assay plate. 50 μL of the SPA mixture is added to each well, containing: 30 μg/mL or 10 μg/mL or 25 μg/mL DAT, NET, SERT membranes, respectively; 5 nM [^3H]WIN-35,428 or 5 nM [^3H]nisoxetine or 1 nM [^3H]citalopram, for DAT, NET, SERT assay, respectively; 2.5 mg/mL or 1 mg/mL or 4 mg/mL WGA-PVT SPA beads (PerkinElmer RPNQ0001, for DAT, NET, SERT assay, respectively. All components are added to Assay Buffer (20 mM HEPES pH 7.4, 145 mM NaCl, 5 mM KCl, 0.01% Pluronic F-127). 0.02% BSA was used for DAT binding only. Plates are sealed with Topseal A and centrifuged 1 min, 800 rpm. Plates are loaded into a 1450 Microbeta TriLux (Perkin-Elmer) plate reader and the radioactivity counted after at least 4 hrs or overnight incubation at room temperature. Curve fitting and IC50 estimations are performed using a four parameter model in XLfit (IDBS, Guilford, UK) for Microdoft Excel (Microsoft, Redmond, Wash.).

For assay [2], the target named is human dopamine transporter (DAT) (Homo sapiens (Human), UniProt Q01959). In words: Scintillation Proximity Assay (SPA) competition binding, human DAT. The note with it: recombinant hDAT-CHO membranes, [3H]WIN-35,428.
Sequence of human dopamine transporter (DAT) (Q01959 whole entry): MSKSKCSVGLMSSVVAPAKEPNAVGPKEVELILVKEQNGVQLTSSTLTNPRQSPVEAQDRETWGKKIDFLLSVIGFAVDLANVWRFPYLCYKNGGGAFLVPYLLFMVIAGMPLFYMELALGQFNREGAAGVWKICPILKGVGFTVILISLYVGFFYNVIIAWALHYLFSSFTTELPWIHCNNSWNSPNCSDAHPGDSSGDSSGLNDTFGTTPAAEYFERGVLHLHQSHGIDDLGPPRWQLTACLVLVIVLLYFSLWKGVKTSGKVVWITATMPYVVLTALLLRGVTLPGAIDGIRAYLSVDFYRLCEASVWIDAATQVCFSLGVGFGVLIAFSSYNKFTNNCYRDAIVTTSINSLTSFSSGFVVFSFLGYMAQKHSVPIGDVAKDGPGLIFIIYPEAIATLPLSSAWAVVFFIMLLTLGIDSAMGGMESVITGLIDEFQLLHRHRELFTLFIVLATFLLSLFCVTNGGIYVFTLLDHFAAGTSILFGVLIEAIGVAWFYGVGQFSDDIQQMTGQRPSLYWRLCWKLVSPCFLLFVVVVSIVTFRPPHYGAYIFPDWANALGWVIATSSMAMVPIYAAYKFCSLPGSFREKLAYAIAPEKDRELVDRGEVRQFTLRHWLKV
Text: as §1
In the context of the present invention pKi values (corresponding to the antilogarithm of Ki) are used instead of Ki; pKi are only estimated to be accurate to about 0.3 log unit.
as §3, §4, §5, §6
(In general: In a scintillation proximity assay essentially only radioactivity close to the scintillant gives light.)

In assay [3] the target is human serotonin transporter (SERT) (Homo sapiens (Human), UniProt P31645). Description: Scintillation Proximity Assay (SPA) competition binding, human SERT. The note with it: recombinant hSERT-CHO membranes, [3H]citalopram.
Sequence of human serotonin transporter (SERT) (P31645 whole entry): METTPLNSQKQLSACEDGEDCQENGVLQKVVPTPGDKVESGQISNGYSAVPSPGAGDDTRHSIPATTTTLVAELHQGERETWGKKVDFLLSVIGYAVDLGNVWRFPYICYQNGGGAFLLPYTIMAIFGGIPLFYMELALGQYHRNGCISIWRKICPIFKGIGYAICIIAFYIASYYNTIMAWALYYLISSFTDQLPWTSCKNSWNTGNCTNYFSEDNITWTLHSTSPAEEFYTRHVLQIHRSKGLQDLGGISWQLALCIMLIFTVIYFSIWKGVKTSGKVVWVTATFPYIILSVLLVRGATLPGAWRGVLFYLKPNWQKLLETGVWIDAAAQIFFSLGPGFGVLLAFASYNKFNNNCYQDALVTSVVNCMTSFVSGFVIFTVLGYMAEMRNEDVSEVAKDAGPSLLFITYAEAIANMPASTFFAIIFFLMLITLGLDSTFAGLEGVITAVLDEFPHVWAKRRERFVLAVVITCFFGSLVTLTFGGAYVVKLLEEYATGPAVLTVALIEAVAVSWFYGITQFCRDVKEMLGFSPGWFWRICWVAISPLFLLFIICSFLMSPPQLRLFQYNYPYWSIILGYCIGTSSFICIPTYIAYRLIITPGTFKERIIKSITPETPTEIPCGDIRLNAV
Text: as §1, §2, §3, §4, §5, §6

Experimental findings from patent US9908897B2, “Spirocyclic derivatives” (CHRONOS THERAPEUTICS LIMITED, priority 2014, dated 2018) are described below.

As a reminder, the IC50 is the concentration that inhibits the measured activity by half.

Sequence of human norepinephrine transporter (NET) (P23975 whole entry): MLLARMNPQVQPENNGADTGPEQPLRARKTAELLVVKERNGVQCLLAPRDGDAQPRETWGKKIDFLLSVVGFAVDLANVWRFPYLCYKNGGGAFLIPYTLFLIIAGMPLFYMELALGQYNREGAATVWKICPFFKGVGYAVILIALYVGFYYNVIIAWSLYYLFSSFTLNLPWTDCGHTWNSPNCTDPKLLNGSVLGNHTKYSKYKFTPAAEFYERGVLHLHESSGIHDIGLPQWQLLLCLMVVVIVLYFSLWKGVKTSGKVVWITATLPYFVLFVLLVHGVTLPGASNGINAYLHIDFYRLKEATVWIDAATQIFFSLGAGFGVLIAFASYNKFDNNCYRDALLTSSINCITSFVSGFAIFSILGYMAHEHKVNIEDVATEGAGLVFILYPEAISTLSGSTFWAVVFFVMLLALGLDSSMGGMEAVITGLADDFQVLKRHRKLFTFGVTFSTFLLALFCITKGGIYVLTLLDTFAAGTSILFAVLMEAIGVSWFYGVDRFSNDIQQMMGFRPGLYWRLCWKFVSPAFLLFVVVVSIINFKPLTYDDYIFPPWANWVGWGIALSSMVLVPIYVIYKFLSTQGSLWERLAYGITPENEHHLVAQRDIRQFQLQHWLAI

Take `CN1CCNCC12CCN(c1nc(Oc3cccc(F)c3)cc(C(F)(F)F)n1)CC2` [Example 74, 9-[4-(3-fluorophenoxy)-6-(trifluoromethyl)pyrimidin-2-yl]-1-methyl-1,4,9-triazaspiro[5.5]undecane]: the “pIC50 NET” value in assay [1] is 6.42. Besides, the “pIC50 DAT” value in assay [2] was determined as 8.38. In addition, the “pIC50 SERT” value in assay [3] is listed as 4.95.
The like results for `Cc1ccc(Oc2ccccc2)cc1N1CCC2(CC1)CNCCO2` [Example 29, 9-(2-methyl-5-phenoxyphenyl)-1-oxa-4,9-diazaspiro[5.5]undecane] were, in that order, 6.01, 7.44 and 5.80.
The like results for `Fc1cccc(Oc2cc(N3CCC4(CC3)CNCCO4)c(F)cc2F)c1` [Example 12, 9-[2,4-difluoro-5-(3-fluorophenoxy)phenyl]-1-oxa-4,9-diazaspiro[5.5]undecane] were, in that order, 5.75, 6.78 and 5.97.
Regarding `Cl.Fc1cccc(Oc2cc(F)c(F)cc2N2CCC3(CC2)CNCCO3)c1` [Example 2, 9-[4,5-difluoro-2-(3-fluorophenoxy)phenyl]-1-oxa-4,9-diazaspiro[5.5]undecane hydrochloride], in assay [1], the “pIC50 NET” value came out at 6.03. Also, the “pIC50 DAT” value in assay [2] came out at 8.14. For the same molecule, the “pIC50 SERT” value in assay [3] was 6.49.
For `Fc1cccc(Oc2cc(N3CCC4(CC3)CNCCO4)cc(F)c2F)c1` [Example 15, 9-[3,4-difluoro-5-(3-fluorophenoxy)phenyl]-1-oxa-4,9-diazaspiro[5.5]undecane], in that order: 6.02, 7.05 and 7.03.
For `Fc1cccc(Oc2ccc(F)c(N3CCC4(CC3)CNCCO4)c2F)c1` [Example 23, 9-[2,6-difluoro-3-(3-fluorophenoxy)phenyl]-1-oxa-4,9-diazaspiro[5.5]undecane], in that order: 6.91, 8.32 and 6.16.
For the molecule `Cl.Fc1cccc(Oc2cc(F)c(F)cc2N2CCC3(CC2)CNCC(F)(F)O3)c1` [Example 69, 9-[4,5-difluoro-2-(3-fluorophenoxy)phenyl]-2,2-difluoro-1-oxa-4,9-diazaspiro[5.5]undecane hydrochloride], the “pIC50 NET” value in assay [1] is 5.06. The “pIC50 DAT” value in assay [2] is listed as 5.97. Further, the IC50 in assay [3] was greater than 100 µM.
Regarding `c1ccc(Oc2cccc(N3CCC4(CC3)CNCCO4)c2)cc1` [Example 6, 9-(3-phenoxyphenyl)-1-oxa-4,9-diazaspiro[5.5]undecane], the “pIC50 NET” value in assay [1] is recorded as 5.83. Further, the “pIC50 DAT” value in assay [2] worked out at 7.41. Moreover, the “pIC50 SERT” value in assay [3] is 6.12.
Turning to `Cl.Fc1ccc(Oc2cc(C(F)(F)F)nc(N3CCC4(CC3)CNCCO4)n2)cc1` [Example 58, 9-[4-(4-fluorophenoxy)-6-(trifluoromethyl)pyrimidin-2-yl]-1-oxa-4,9-diazaspiro[5.5]undecane hydrochloride], the “pIC50 NET” value in assay [1] was found to be 5.52. The “pIC50 DAT” value in assay [2] is 7.53. Moreover, the “pIC50 SERT” value in assay [3] was 7.31.
Turning to `Fc1cccc(Oc2cncc(N3CCC4(CC3)CNCCO4)c2)c1` [Example 31, 9-[5-(3-fluorophenoxy)pyridin-3-yl]-1-oxa-4,9-diazaspiro[5.5]undecane], the “pIC50 NET” value in assay [1] amounted to 5.96. Moreover, in assay [2], the “pIC50 DAT” value is reported as 7.43. Further, in assay [3], the “pIC50 SERT” value was found to be 5.71.
For `Cl.N#Cc1cc(Oc2cccc(F)c2)nc(N2CCC3(CC2)CNCCO3)c1` [Example 38, 2-(3-fluorophenoxy)-6-{1-oxa-4,9-diazaspiro[5.5]undecan-9-yl}pyridine-4-carbonitrile hydrochloride], in that order: 6.75, 8.61 and 7.27.
For `Cl.Fc1cccc(Oc2cc(F)c(F)cc2N2CCC3(CCNCC34OCCO4)C2)c1` (stereo not drawn) [Example 94, 8-[4,5-difluoro-2-(3-fluorophenoxy)phenyl]-1,4-dioxa-8,13-diazadispiro[4.0.4^6.4^5]tetradecane hydrochloride], in that order: 7.11, 8.69 and 7.14.
As for `c1ccc(Oc2ccccc2N2CCC3(CC2)CNCCO3)cc1` [Example 3, 9-(2-phenoxyphenyl)-1-oxa-4,9-diazaspiro[5.5]undecane], the “pIC50 NET” value in assay [1] was found to be 5.28. Moreover, in assay [2], the “pIC50 DAT” value worked out at 6.09. In assay [3], the “pIC50 SERT” value is on record as 5.02.
For `Cl.Fc1cccc(Oc2cc(C(F)(F)F)nc(N3CCC4(CC3)COCCN4)n2)c1` [Example 78, 9-[4-(3-fluorophenoxy)-6-(trifluoromethyl)pyrimidin-2-yl]-4-oxa-1,9-diazaspiro[5.5]undecane hydrochloride], in that order: 7.32, 7.94 and 5.17.
The like results for `c1ccc(Cc2cccc(N3CCC4(CC3)CNCCO4)c2)cc1` [Example 33, 9-(3-benzylphenyl)-1-oxa-4,9-diazaspiro[5.5]undecane] were, in that order, 5.54, 6.42 and 5.73.
For `COc1ccccc1Oc1cc(C)nc(N2CCC3(CC2)CNCCO3)n1.Cl` [Example 52, 9-[4-(2-methoxyphenoxy)-6-methylpyrimidin-2-yl]-1-oxa-4,9-diazaspiro[5.5]undecane hydrochloride], in assay [1], the “pIC50 NET” value is reported as 5.30. Besides, the “pIC50 DAT” value in assay [2] was 5.96. For the same molecule, the IC50 in assay [3] is greater than 100 µM.
`Cc1c(C#N)cc(N2CCC3(CC2)CNCCO3)cc1Oc1cccc(F)c1.Cl` [Example 35, 3-(3-fluorophenoxy)-2-methyl-5-{1-oxa-4,9-diazaspiro[5.5]undecan-9-yl}benzonitrile hydrochloride]: the “pIC50 NET” value in assay [1] came out at 6.52. Also, the “pIC50 DAT” value in assay [2] came to 8.16. In addition, the “pIC50 SERT” value in assay [3] is given as 8.45.
For `COc1cc(Cc2ccccc2)nc(N2CCC3(CC2)CNCCO3)n1.Cl` [Example 61, 9-(4-benzyl-6-methoxypyrimidin-2-yl)-1-oxa-4,9-diazaspiro[5.5]undecane hydrochloride], in that order: 5.29, 6.67 and 4.89.
